This is an account of results in BindingDB's records for doi:10.1021/acschembio.7b00707 (Istituto Italiano di Tecnologia, 2017).

The target of the assay is Breast cancer type 2 susceptibility protein/DNA repair protein RAD51 homolog 1 (Homo sapiens, UniProt P51587+Q06609). Briefly: ELISA assay. An excerpt: This assay is an efficient tool for directly measuring inhibition of the BRC4−Rad51 interaction, at a molecular level, which is described by Rajendra et al.
In general terms: In an ELISA, binding on a coated surface is turned into a signal by an enzyme label.

Chain of Breast cancer type 2 susceptibility protein/DNA repair protein RAD51 homolog 1 (P51587 whole entry V2466A): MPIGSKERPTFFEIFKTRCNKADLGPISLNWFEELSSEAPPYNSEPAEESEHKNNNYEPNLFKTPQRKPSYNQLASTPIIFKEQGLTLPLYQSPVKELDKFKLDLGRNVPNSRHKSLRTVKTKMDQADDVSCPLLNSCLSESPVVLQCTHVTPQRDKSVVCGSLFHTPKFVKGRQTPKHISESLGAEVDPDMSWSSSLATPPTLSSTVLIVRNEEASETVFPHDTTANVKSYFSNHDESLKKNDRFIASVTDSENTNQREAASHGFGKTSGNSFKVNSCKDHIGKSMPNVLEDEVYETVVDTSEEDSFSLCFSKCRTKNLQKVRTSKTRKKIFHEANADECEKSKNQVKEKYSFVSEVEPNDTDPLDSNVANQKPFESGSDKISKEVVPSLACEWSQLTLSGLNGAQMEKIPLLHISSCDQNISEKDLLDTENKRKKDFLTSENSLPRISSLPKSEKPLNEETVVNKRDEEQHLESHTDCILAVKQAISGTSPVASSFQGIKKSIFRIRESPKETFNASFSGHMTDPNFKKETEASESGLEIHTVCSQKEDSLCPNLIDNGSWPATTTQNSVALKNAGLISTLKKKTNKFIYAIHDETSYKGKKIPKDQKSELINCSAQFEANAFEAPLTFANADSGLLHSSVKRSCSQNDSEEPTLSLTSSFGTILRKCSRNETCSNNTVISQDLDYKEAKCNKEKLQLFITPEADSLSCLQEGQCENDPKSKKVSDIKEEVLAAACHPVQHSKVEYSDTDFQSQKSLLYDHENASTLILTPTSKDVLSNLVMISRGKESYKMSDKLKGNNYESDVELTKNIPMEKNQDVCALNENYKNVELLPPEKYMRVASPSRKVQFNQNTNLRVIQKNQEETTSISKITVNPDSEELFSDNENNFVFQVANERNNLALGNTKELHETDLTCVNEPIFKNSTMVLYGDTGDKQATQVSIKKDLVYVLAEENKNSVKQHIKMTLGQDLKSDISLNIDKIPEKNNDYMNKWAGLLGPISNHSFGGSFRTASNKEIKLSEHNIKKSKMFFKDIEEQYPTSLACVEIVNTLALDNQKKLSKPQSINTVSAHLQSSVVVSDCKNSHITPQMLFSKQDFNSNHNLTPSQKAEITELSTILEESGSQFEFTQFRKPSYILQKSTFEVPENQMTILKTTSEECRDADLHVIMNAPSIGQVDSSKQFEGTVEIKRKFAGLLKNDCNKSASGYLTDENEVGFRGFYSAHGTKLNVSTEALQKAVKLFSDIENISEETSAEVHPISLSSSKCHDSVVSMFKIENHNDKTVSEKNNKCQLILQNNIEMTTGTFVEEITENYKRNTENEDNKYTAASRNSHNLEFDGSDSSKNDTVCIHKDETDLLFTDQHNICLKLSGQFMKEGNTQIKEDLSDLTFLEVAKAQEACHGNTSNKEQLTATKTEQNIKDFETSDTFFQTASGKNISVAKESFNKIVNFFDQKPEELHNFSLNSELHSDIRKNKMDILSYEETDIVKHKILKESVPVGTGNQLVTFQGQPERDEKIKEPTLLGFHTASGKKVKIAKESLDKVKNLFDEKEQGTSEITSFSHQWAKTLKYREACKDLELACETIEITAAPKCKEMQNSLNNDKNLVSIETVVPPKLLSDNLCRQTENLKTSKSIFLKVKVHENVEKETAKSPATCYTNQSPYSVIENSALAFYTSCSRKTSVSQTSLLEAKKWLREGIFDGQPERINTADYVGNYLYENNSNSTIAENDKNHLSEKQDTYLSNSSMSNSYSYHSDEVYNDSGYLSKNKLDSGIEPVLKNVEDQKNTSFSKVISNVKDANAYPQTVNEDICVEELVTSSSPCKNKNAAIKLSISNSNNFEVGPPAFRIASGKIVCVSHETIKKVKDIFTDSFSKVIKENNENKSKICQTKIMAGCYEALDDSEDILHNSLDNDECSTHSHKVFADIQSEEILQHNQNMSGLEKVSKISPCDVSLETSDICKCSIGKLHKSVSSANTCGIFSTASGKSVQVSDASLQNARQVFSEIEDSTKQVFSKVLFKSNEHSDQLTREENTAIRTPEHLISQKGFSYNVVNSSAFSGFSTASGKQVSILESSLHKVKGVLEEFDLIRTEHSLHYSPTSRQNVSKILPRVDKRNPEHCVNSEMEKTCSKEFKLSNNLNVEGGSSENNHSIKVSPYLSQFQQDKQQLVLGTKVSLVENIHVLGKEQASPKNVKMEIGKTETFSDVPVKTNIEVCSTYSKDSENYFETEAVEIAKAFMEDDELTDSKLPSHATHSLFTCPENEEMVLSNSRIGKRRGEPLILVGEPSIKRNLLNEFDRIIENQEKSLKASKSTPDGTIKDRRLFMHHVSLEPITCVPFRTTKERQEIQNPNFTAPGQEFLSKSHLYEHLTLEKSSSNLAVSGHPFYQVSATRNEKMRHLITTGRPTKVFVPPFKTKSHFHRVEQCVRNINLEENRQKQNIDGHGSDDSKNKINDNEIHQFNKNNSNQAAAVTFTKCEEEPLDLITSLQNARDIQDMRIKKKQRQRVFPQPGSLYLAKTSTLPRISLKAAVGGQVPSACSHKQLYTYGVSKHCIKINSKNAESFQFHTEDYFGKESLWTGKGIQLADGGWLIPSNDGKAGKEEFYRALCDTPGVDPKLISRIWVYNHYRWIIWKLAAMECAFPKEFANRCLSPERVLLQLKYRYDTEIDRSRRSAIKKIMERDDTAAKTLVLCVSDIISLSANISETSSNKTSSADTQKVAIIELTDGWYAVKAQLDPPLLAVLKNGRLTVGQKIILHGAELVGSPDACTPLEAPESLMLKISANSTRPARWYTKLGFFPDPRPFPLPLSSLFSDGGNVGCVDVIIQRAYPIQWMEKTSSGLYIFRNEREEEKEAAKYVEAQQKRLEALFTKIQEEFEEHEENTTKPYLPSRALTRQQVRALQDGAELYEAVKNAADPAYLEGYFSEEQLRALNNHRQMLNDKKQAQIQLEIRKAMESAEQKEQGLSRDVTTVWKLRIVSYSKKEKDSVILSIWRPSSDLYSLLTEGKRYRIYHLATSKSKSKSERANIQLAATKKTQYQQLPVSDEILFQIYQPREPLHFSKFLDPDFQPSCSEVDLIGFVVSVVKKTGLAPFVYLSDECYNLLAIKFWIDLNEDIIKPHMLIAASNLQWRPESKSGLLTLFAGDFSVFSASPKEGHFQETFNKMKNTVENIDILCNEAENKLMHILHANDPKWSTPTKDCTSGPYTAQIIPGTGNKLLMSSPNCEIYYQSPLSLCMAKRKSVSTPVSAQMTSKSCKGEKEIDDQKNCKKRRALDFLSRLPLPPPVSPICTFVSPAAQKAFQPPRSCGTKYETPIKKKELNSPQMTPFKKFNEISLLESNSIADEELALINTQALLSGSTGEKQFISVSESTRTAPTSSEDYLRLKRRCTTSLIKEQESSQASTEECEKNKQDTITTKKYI
Chain of Breast cancer type 2 susceptibility protein/DNA repair protein RAD51 homolog 1 (Q06609 whole entry): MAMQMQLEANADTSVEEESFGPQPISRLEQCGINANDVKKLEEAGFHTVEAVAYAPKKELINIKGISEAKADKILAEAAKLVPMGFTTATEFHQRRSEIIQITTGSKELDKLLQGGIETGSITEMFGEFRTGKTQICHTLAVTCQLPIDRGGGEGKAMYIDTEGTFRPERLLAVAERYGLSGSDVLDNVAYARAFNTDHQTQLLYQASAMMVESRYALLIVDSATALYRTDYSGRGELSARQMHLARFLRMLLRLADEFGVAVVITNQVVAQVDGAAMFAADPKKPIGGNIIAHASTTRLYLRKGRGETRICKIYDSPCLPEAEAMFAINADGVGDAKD

Usually EC50 stands for the concentration that produces a half-maximal response. For the compound `O=C(CSc1nnc(Cn2c(=O)sc3ccccc32)n1CCc1ccccc1)NC1CCCC1` [F0665-0303], the EC50 was 53 µM.

Compound `O=C(CSc1nnc(Cn2c(=O)sc3ccccc32)n1CCCc1ccccc1)NC1CCCC1` [N-cyclopentyl-2-((5-((2-oxobenzo[d]thiazol-3(2H)-yl)methyl)-4-phenpropyl-4H-1,2,4-triazol-3-yl)thio)acetamide] yielded an EC50 of 25 µM.
